{"source": "paper PMC5115179", "about": "(Pharmacology Research & Perspectives, 2016)", "key": {"rat": {"test_system": "rat", "design": "method as in Pedraza et al., 2009", "conditions": "10 mg/kg i.p., ref Pedraza et al., 2009; cited from earlier work"}, "[1]": {"experiment": "Excretion of NCS‐382 in urine and feces (metabolic cages)", "assay_type": "in vivo", "conditions": "mouse, pooled urine of 3 mice", "description": "To ensure sufficient volumes of urine could be collected in each of the 2 h time intervals (baseline, 0–2, 2–4, 4–6, 6–8 h), three mice were dosed simultaneously and their urine and feces pooled for analysis. The total dose in μg administered to the three animals was therefore used to calculate the percent of the dose excreted in the urine pooled from all three mice. Animals were allowed ad libitum access to food and water of which the intake of each was monitored.\nSamples (3 μL) were injected onto a Kinetex PFP (50 × 2.1 mm, 1.7 μm particle size) UPLC column and eluted with a binary gradient consisting of water with 0.1% formic acid (mobile phase A) and methanol with 0.1% formic acid (mobile phase B). […] Eluent was directed to waste for the initial 0.4 min then to an ABI Sciex 6500 Qtrap tandem mass spectrometer. […] Where necessary, samples were diluted in blank matrices for analysis.\nPharmacokinetic outcomes were obtained via standard noncompartmental methods using Kinetica (version 5.1, Thermo Fisher Scientific, Waltham, MA). The maximum concentration (C max) was obtained directly from the concentration–time profiles. Area under the concentration–time curve (AUC) from time zero to the last collected time point was determined using the trapezoidal method with linear up/log down interpolation."}, "[2]": {"test_system": "gamma‐butyrolactone‐treated mice", "experiment": "GBL‐mediated response protection by NCS‐382 in the absence and presence of diclofenac", "assay_type": "in vivo", "conditions": "mouse", "experimental": "Wild‐type C57/B6 mice (mixed gender, n = 7) were bred in‐house, weaned at day of life (DOL) 21, and randomized to a treatment sequence (Fig. 2). […] Thirty minutes later, mice were given an i.p. injection of GBL (100 mg/kg diluted in PBS) and were placed into a clean round arena (~10 inches in diameter) and were allowed access to food and water. Mice were recorded on a camera operated by Serena acquisition software (recorded for 10 min). At 5 and 10 min following GBL, righting reflex was assessed. These procedures were repeated daily with ~24 h in between sessions. Data file names were coded such that treatments were blinded at the time of video data analysis. During video data analysis, the time of which noticeable loss of motor function or coordination (e.g., “loss of motor function”) was observed, and the time taken for the subject to enter a dissociative state and fall into an unsupported prone position (e.g., “time to loss of motion”) was monitored. Righting reflex was evaluated by placing the mouse in a supine position and the time to return to all four paws was recorded based on the timestamp of the playback video. Data for each treatment group were expressed as the mean and standard deviation, and statistical significance was evaluated using one‐way ANOVA and Tukey post hoc t test (P < 0.05).\nWild‐type C57/B6 mice (mixed gender, n = 7) were bred in‐house, weaned at day of life (DOL) 21, and randomized to a treatment sequence. […] Thirty minutes later, mice were given an i.p. injection of GBL (100 mg/kg in PBS) and were placed into a clean round arena (~10 inches in diameter) and were allowed access to food and water. Mice were recorded on a camera operated by Sirena acquisition software (recorded for 10 min). At 5 and 10 min following GBL, righting reflex was assessed. These procedures were repeated daily with ~24 h in between sessions. Data files names were coded such that video analysis was blinded at the time of data recording."}, "[3]": {"experiment": "Metabolite identification in samples from mouse pharmacokinetic studies (candidate metabolites)", "assay_type": "in vivo", "conditions": "LC‐MS/MS of NCS‐382‐treated mouse samples", "description": "Metabolite identification was conducted on samples obtained from pharmacokinetic studies in mice. Analytical conditions and equipment were similar to those described above with some modifications. Samples (10 μL) were injected onto a Kinetex PFP (50 × 2.1 mm, 1.7 μm particle size) UPLC column maintained at 40°C. […] MS experiments consisted of enhanced MS (EMS), neutral loss (NL), precursor ion scan (Prec), and MRM each followed by MS/MS experiments when necessary. Constant conditions such as a source temperature (450°C), signal threshold (500 cps), and CAD gas (“high”) were used, while additional parameters (e.g., collision energy, collision energy spread, mass range, etc.) were obtained by the software during data‐dependent scans. Studies were performed using sera and brain samples, with time points pooled for individual matrices and a reference control derived by pooling the sera or brain homogenates from three vehicle‐treated animals.\nUsing the Light Sight software, a comprehensive list of prospective phase I and phase II metabolites were targeted (Table S2). […] A number of structurally feasible metabolites (including oxidation) were initially identified, but could not be confirmed by their mass fragmentation patterns. […] Both peaks were detected in urine samples (Fig. S1B), but not in feces."}}}
{"smiles": "O=C(O)/C=C1\\CCCc2ccccc2C1O", "note": "(stereo not shown) [NCS‐382, 6,7,8,9‐tetrahydro‐5‐hydroxy‐5H‐benzo‐cyclohept‐6‐ylideneacetic acid]", "values": [{"measurement": "neurological damage and working-memory impairment induced by low-dose GHB", "setting": "rat", "result": "NCS-382 prevents both neurological damage and working- memory impairment induced by low-dose GHB."}, {"measurement": "total dose administered recovered unchanged in the urine over 8 h", "setting": "[1]; 100 mg/kg", "result": 0.1, "unit": "%"}, {"measurement": "total dose administered recovered unchanged in the urine over 8 h", "setting": "[1]; 300 mg/kg", "result": 1.1, "unit": "%"}, {"measurement": "total dose administered recovered unchanged in the urine over 8 h", "setting": "[1]; 500 mg/kg", "result": 3.3, "unit": "%"}, {"measurement": "time to loss of motor function compared to vehicle control", "setting": "[2]; NCS‐382 300 mg/kg with diclofenac 25 mg/kg i.p. 30 min before GBL 100 mg/kg i.p.", "result": "significantly improved"}, {"measurement": "time to loss of motor function compared to vehicle control", "setting": "[2]; given alone i.p. (NCS‐382 300 mg/kg or diclofenac 25 mg/kg) 30 min before GBL 100 mg/kg i.p.", "result": "trended toward increasing"}, {"measurement": "Peak Area (%)", "setting": "[3]", "result": 25, "unit": "%"}]}
